Measurements from article PMC3917699, “Glucoamylase of Caulobacter crescentus CB15: cloning and expression in Escherichia coli and functional identification” (AMB Express, 2014).

Biological target: T1, CauloGA (Protein A-CauloGA fusion) (Caulobacter vibrioides, UniProt Q9A613)
T1 construct: gene CC_2282; putative signal peptide removed; N-terminal Staphylococcus Protein A (synthetic ZZ domain) fusion kept; pEZZ18, E. coli HB101; IgG Sepharose; fusion 96 kDa, CauloGA about 82 kDa
Test: initial rate, glucose release (F-kit D-glucose), nonlinear regression
Assay type: biochemical
Settings: apparent substrate inhibition constant
Text: initial rate, glucose release (F-kit D-glucose), nonlinear regression on CauloGA (Protein A-CauloGA fusion)

T1 sequence (Q9A613 entry or part of it): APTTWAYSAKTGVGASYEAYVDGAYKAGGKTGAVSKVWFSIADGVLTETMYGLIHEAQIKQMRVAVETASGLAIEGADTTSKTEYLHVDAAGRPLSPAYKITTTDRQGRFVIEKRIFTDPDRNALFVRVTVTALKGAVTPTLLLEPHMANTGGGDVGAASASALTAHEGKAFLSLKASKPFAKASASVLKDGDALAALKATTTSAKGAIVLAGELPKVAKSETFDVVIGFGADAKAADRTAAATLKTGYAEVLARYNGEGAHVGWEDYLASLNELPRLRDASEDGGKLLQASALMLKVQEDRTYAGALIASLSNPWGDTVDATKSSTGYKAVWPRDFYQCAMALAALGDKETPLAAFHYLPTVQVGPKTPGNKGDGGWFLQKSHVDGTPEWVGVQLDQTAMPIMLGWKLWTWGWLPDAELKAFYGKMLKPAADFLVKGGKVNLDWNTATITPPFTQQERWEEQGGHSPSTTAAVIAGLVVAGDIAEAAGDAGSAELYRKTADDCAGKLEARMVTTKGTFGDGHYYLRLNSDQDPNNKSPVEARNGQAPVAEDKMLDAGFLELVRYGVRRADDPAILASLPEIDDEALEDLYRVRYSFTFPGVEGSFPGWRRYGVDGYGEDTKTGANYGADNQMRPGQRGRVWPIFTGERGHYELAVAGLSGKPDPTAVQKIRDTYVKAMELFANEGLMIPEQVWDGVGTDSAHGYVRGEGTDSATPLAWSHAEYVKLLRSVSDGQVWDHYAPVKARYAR

| Compound | Ki^b (0-9 mM substrate, pH 5.0, 30°C) [µM] | other results |
| --- | --- | --- |
| OC[C@H]1O[C@H](O[C@H]2[C@H](O)[C@@H](O)[C@@H](O[C@H]3[C@H](O)[C@@H](O)[C@@H](O[C@H]4[C@H](O)[C@@H](O)[C@@H](O[C@H]5[C@H](O)[C@@H](O)[C@@H](O[C@H]6[C@H](O)[C@@H](O)[C@@H](O[C@H]7[C@H](O)[C@@H](O)C(O)O[C@@H]7CO)O[C@@H]6CO)O[C@@H]5CO)O[C@@H]4CO)O[C@@H]3CO)O[C@@H]2CO)[C@H](O)[C@@H](O)[C@@H]1O (stereo partly drawn) [Maltoheptaose] | 1250 ± 250 |  |
| OC[C@H]1O[C@H](O[C@H]2[C@H](O)[C@@H](O)[C@@H](O[C@H]3[C@H](O)[C@@H](O)[C@@H](O[C@H]4[C@H](O)[C@@H](O)[C@@H](O[C@H]5[C@H](O)[C@@H](O)[C@@H](O[C@H]6[C@H](O)[C@@H](O)C(O)O[C@@H]6CO)O[C@@H]5CO)O[C@@H]4CO)O[C@@H]3CO)O[C@@H]2CO)[C@H](O)[C@@H](O)[C@@H]1O (stereo partly drawn) [Maltohexaose] | 1050 ± 80 |  |
| OC[C@H]1O[C@H](O[C@H]2[C@H](O)[C@@H](O)[C@@H](O[C@H]3[C@H](O)[C@@H](O)[C@@H](O[C@H]4[C@H](O)[C@@H](O)[C@@H](O[C@H]5[C@H](O)[C@@H](O)C(O)O[C@@H]5CO)O[C@@H]4CO)O[C@@H]3CO)O[C@@H]2CO)[C@H](O)[C@@H](O)[C@@H]1O (stereo partly drawn) [Maltopentaose] | 920 ± 40 |  |
| OC[C@H]1O[C@H](O[C@H]2[C@H](O)[C@@H](O)C(O)O[C@@H]2CO)[C@H](O)[C@@H](O)[C@@H]1O (stereo partly drawn) [Maltose] |  | Ki^b (0-18 mM substrate, 50 mM acetate buffer pH 5.0, 30°C): 38200 ± 1110 µM |
| OC[C@H]1O[C@H](O[C@H]2[C@H](O)[C@@H](O)[C@@H](O[C@H]3[C@H](O)[C@@H](O)[C@@H](O[C@H]4[C@H](O)[C@@H](O)C(O)O[C@@H]4CO)O[C@@H]3CO)O[C@@H]2CO)[C@H](O)[C@@H](O)[C@@H]1O (stereo partly drawn) [Maltotetraose] |  | Ki^b (0-18 mM substrate, pH 5.0, 30°C): 1100 ± 60 µM |
| OC[C@H]1O[C@H](O[C@H]2[C@H](O)[C@@H](O)[C@@H](O[C@H]3[C@H](O)[C@@H](O)C(O)O[C@@H]3CO)O[C@@H]2CO)[C@H](O)[C@@H](O)[C@@H]1O (stereo partly drawn) [Maltotriose] |  | Ki^b (0-18 mM substrate, pH 5.0, 30°C, text b46 prints approximately 4.2 mM): 4490 ± 310 µM |
